Here are results for 2 compounds from PMC4114247 (Cancer research, 2009).

For experiment [1], the target named is PSMA on human prostate cancer LNCaP cells (Homo sapiens, UniProt Q04609). Kind of experiment: Saturation binding analysis on LNCaP cells.
The target in experiment [2] is NAALADase activity of PSMA (Homo sapiens, UniProt Q04609). Briefly: NAALADase inhibition in LNCaP cell lysates. Type of experiment: biochemical.
Chain of NAALADase activity of PSMA (Q04609 whole entry): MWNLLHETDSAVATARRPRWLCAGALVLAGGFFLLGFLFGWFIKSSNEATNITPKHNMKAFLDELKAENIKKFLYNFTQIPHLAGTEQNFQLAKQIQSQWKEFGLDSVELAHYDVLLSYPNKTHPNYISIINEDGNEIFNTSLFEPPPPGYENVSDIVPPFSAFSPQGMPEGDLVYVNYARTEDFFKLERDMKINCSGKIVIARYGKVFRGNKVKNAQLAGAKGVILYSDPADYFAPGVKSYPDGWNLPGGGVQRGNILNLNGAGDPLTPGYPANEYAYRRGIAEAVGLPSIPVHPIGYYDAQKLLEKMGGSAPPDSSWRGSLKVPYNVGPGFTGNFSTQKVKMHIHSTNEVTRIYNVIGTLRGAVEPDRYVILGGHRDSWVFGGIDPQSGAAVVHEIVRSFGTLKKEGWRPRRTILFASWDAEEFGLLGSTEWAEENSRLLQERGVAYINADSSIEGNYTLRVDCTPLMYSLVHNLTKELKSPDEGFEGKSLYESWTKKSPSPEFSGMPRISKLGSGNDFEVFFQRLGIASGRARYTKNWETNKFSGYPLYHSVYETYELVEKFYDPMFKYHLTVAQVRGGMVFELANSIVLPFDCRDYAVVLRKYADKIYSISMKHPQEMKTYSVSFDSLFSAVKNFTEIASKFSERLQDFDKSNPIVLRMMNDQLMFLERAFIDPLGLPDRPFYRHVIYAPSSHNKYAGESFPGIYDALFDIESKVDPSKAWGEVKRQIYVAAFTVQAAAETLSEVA

Chain of PSMA on human prostate cancer LNCaP cells (Q04609 whole entry): as above

`O=C(O)CC[C@H](NC(=O)N[C@@H](CCCCNCc1ccc(I)cc1)C(=O)O)C(=O)O` [MIP-1072, (S)-2-(3-((S)-1-carboxy-5-(4–iodobenzylamino)pentyl)ureido)pentanedioic acid] came in with a dissociation constant Kd in experiment [1] of 3.8 ± 1.3 nM. The compound also returned a Ki in experiment [2] of 4.6 ± 1.6 nM.

In experiment [1], `O=C(O)CC[C@H](NC(=O)N[C@@H](CCCCNC(=O)Nc1ccc(I)cc1)C(=O)O)C(=O)O` [MIP-1095, (S)-2-(3-((S)-1-carboxy-5-(3-(4-iodophenyl)ureido)pentyl)ureido)pentanedioic acid] came in with a dissociation constant (Kd) of 0.81 ± 0.39 nM. Moreover, the “Greater affinity of MIP-1095 over MIP-1072” value in experiment [1] (saturation binding and NAALADase inhibition studies) is listed as “approximately 5 fold”.
